Legend:
Assay type in all cases: cell-based
[1] = target: Delta-type opioid receptor (Homo sapiens, UniProt P41143); assay: Displacement of [3H]bremazocine from cloned human delta opioid receptor expressed in CHO cells
[2] = target: Kappa-type opioid receptor (Homo sapiens, UniProt P41145); assay: Displacement of [3H]diprenorphine from cloned human kappa opioid receptor expressed in CHO cells
Mu-type opioid receptor = Mu-type opioid receptor (Homo sapiens, UniProt P35372); assay: Displacement of [3H]diprenorphine from cloned human mu opioid receptor expressed in CHO cells
Sequence of Mu-type opioid receptor (P35372 whole entry): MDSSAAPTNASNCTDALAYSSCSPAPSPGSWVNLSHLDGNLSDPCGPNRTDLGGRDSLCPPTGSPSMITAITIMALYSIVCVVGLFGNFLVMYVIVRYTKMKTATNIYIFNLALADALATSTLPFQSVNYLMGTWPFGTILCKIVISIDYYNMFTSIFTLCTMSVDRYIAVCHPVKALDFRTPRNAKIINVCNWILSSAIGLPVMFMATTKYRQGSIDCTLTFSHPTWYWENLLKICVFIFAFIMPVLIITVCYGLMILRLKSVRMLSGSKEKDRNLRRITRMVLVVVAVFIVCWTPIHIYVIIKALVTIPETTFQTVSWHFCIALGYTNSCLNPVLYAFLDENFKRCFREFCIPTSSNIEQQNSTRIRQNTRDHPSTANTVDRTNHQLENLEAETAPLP

Sequence of Kappa-type opioid receptor (P41145 whole entry): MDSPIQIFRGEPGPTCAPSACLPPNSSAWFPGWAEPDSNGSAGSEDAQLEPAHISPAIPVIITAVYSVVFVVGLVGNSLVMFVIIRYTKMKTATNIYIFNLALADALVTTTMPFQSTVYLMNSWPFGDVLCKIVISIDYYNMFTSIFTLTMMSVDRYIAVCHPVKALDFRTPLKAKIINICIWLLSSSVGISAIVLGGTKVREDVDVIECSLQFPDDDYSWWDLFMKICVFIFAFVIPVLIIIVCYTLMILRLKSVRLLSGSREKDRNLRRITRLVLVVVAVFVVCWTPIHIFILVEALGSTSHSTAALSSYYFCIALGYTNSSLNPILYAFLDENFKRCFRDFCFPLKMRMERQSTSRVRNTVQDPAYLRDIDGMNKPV
Sequence of Delta-type opioid receptor (P41143 whole entry): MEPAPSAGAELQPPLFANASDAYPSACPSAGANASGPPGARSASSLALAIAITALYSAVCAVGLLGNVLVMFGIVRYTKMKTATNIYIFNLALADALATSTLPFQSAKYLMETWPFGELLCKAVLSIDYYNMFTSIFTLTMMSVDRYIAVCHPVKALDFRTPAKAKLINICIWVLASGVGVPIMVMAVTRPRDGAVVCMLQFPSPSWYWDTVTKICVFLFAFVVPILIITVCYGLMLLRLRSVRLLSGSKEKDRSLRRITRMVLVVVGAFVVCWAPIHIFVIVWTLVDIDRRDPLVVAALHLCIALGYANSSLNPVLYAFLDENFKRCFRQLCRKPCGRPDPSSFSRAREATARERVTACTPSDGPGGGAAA

| Compound | Ki [1] | Ki [2] | Ki (Mu-type opioid receptor) |
| --- | --- | --- | --- |
| NC(=O)c1ccc(Oc2ccc3c(c2)CCN(Cc2ccccc2)C3)nc1 | 2.35 µM | 2.15 µM | 0.179 µM |
| NC(=O)c1ccc(Oc2ccc3c(c2)CCCN(CCc2ccccc2)C3)nc1 | 0.169 µM | 0.361 µM | 0.0101 µM |
| NC(=O)c1ccc(Oc2ccc3c(c2)CCN(CCc2ccccc2)CC3)nc1 | 1.38 µM | > 4.9 µM | 0.0915 µM |
| NC(=O)c1ccc(Oc2ccc3c(c2)CCN(CCc2ccccc2)C3)nc1 | 0.18 µM | 1.22 µM | 0.016 µM |
| NC(=O)c1ccc(Oc2ccc3c(c2)CCCN(CCN2CCOCC2)C3)nc1 | 1.91 µM | 0.36 µM | 0.129 µM |
| NC(=O)c1ccc(Oc2ccc3c(c2)CCCN(CCCN2CCOCC2)C3)nc1 | 2.58 µM | 3.25 µM | 0.216 µM |
| NC(=O)c1ccc(Oc2ccc3c(c2)CCN(CCCc2ccccc2)C3)nc1 | 2.14 µM | 0.556 µM | 0.185 µM |
| CCCCN1CCCc2cc(Oc3ccc(C(N)=O)cn3)ccc2C1 | 0.504 µM | – | 0.0208 µM |
| CC(C)CCN1CCCc2cc(Oc3ccc(C(N)=O)cn3)ccc2C1 | 0.232 µM | 0.0781 µM | 0.0111 µM |
| NC(=O)c1ccc(Oc2ccc3c(c2)CN(Cc2ccccc2)CC3)nc1 | 2.45 µM | 2.43 µM | 0.232 µM |
| NC(=O)c1ccc(Oc2ccc3c(c2)CN(CCc2ccccc2)C3)nc1 | 2.27 µM | > 5 µM | 0.659 µM |
| CCC(CC)CN1CCCc2cc(Oc3ccc(C(N)=O)cn3)ccc2C1 | 3.89 µM | 0.0616 µM | 0.042 µM |
| NC(=O)c1ccc(Oc2ccc3c(c2)CN(Cc2ccccc2)C3)nc1 | > 5 µM | > 5 µM | 1.01 µM |
| CC(C)(C)CCN1CCCc2cc(Oc3ccc(C(N)=O)cn3)ccc2C1 | 0.409 µM | 0.0716 µM | 0.0183 µM |
| NC(=O)c1ccc(Oc2ccc(CCN3CCc4ccccc4C3)cc2)nc1 | 0.144 µM | 0.188 µM | 0.00505 µM |
| NC(=O)c1ccc(Oc2ccc3c(c2)CCCN(CCCC(F)(F)F)C3)nc1 | 0.388 µM | – | 0.0244 µM |
| NC(=O)c1ccc(Oc2ccc3c(c2)CCN(Cc2ccccc2)CC3)nc1 | 2.71 µM | 2.87 µM | 0.406 µM |
| CC(C)CCCN1CCCc2cc(Oc3ccc(C(N)=O)cn3)ccc2C1 | 0.108 µM | 0.106 µM | 0.00755 µM |
| NC(=O)c1ccc(Oc2ccc3c(c2)CCCN(CCCC2CCCCC2)C3)nc1 | 0.466 µM | 0.704 µM | 0.0417 µM |
| CC(C)CCCCN1CCCc2cc(Oc3ccc(C(N)=O)cn3)ccc2C1 | 0.24 µM | 0.319 µM | 0.0119 µM |
| CCCCCCN1CCCc2cc(Oc3ccc(C(N)=O)cn3)ccc2C1 | 0.163 µM | 0.116 µM | 0.012 µM |
| CCCCCN1CCCc2cc(Oc3ccc(C(N)=O)cn3)ccc2C1 | 0.187 µM | 0.106 µM | 0.0119 µM |
| NC(=O)c1ccc(Oc2ccc3c(c2)CN(CCc2ccccc2)CC3)nc1 | > 5 µM | 3.61 µM | > 3.33 µM |

— ChEMBL document CHEMBL1138307, “Structure activity relationship studies of carboxamido-biaryl ethers as opioid receptor antagonists (OpRAs). Part 2” (Bioorg Med Chem Lett, 2007)
